Experimental data from the supplement of paper PMC13207355.

Key:
Details in all cases: exposure time: 72 h
[1] = system: FT3469 (normal neural stem cell line); assay: surviving fraction (nuclei count normalised to DMSO); higher = more cells surviving (less toxic)
[2] = system: E57 (patient-derived glioblastoma stem cells of mesenchymal subtype); assay: as above
[3] = system: E21 (patient-derived glioblastoma stem cells of mesenchymal subtype); assay: as above
[4] = system: E31 (patient-derived glioblastoma stem cells of proneural subtype); assay: as above
[5] = system: E13 (patient-derived glioblastoma stem cells of classical subtype); assay: as above
[6] = system: E34 (patient-derived glioblastoma stem cells of proneural subtype); assay: as above
[7] = system: E28 (patient-derived glioblastoma stem cells of classical subtype); assay: as above
[8] = system: FT3469; assay: phenotypic distance (Euclidean, principal components) from DMSO controls (arbitrary units); higher = stronger morphological change
[9] = system: E57; assay: as above
[10] = system: E21; assay: as above
[11] = system: E31; assay: as above
[12] = system: E13; assay: as above
[13] = system: E34; assay: as above
[14] = system: E28; assay: as above
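For phenotypic distance (Euclidean, principal components) from DMSO controls in this document: cell Painting imaging in 384-well plates, CellProfiler features reduced to at least 20 principal components, Euclidean distance versus same-plate DMSO vehicle wells (0.1% v/v), median over six images per well.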
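For surviving fraction (nuclei count normalised to DMSO) in this document: nuclei counted by high-content imaging of Hoechst-stained cells in laminin-coated 384-well plates, relative to 0.1% DMSO vehicle wells, with staurosporine as cell-death control.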

CC(=O)CC(c1ccc([N+](=O)[O-])cc1)c1c(O)c2ccccc2oc1=O (stereo not drawn) [Acenocoumarol]
Details | phenotypic distance | surviving fraction
[1], 4.1 nM | – | 1.01
[1], 12.3 nM | – | 1.07
[1], 37 nM | – | 0.881
[1], 111.1 nM | – | 1.12
[1], 333.3 nM | – | 0.823
[1], 1000 nM | – | 0.849
[1], 3000 nM | – | 0.771
[2], 4.1 nM | – | 1.08
[2], 12.3 nM | – | 1.09
[2], 37 nM | – | 1.02
[2], 111.1 nM | – | 1.07
[2], 333.3 nM | – | 1.03
[2], 1000 nM | – | 0.983
[2], 3000 nM | – | 1.02
[3], 4.1 nM | – | 0.926
[3], 12.3 nM | – | 1.09
[3], 37 nM | – | 0.897
[3], 111.1 nM | – | 0.931
[3], 333.3 nM | – | 0.865
[3], 1000 nM | – | 0.954
[3], 3000 nM | – | 0.852
[4], 4.1 nM | – | 0.989
[4], 12.3 nM | – | 0.923
[4], 37 nM | – | 0.848
[4], 111.1 nM | – | 0.934
[4], 333.3 nM | – | 1.03
[4], 1000 nM | – | 0.955
[4], 3000 nM | – | 0.809
[5], 4.1 nM | – | 0.91
[5], 12.3 nM | – | 1.04
[5], 37 nM | – | 1.05
[5], 111.1 nM | – | 1.03
[5], 333.3 nM | – | 0.873
[5], 1000 nM | – | 0.931
[5], 3000 nM | – | 0.767
[6], 4.1 nM | – | 0.771
[6], 12.3 nM | – | 1.01
[6], 37 nM | – | 1.04
[6], 111.1 nM | – | 1.06
[6], 333.3 nM | – | 0.935
[6], 1000 nM | – | 0.918
[6], 3000 nM | – | 0.892
[7], 4.1 nM | – | 0.905
[7], 12.3 nM | – | 0.999
[7], 37 nM | – | 0.918
[7], 111.1 nM | – | 0.967
[7], 333.3 nM | – | 1.06
[7], 1000 nM | – | 0.92
[7], 3000 nM | – | 0.901
[8], 4.1 nM | 1.4 | –
[8], 12.3 nM | 0.712 | –
[8], 37 nM | 1.02 | –
[8], 111.1 nM | 0.751 | –
[8], 333.3 nM | 0.862 | –
[8], 1000 nM | 0.691 | –
[8], 3000 nM | 0.764 | –
[9], 4.1 nM | 0.94 | –
[9], 12.3 nM | 1.02 | –
[9], 37 nM | 1.11 | –
[9], 111.1 nM | 1.36 | –
[9], 333.3 nM | 0.492 | –
[9], 1000 nM | 0.718 | –
[9], 3000 nM | 0.744 | –
[10], 4.1 nM | 1.01 | –
[10], 12.3 nM | 0.655 | –
[10], 37 nM | 0.963 | –
[10], 111.1 nM | 0.772 | –
[10], 333.3 nM | 0.946 | –
[10], 1000 nM | 0.684 | –
[10], 3000 nM | 1.11 | –
[11], 4.1 nM | 0.829 | –
[11], 12.3 nM | 0.483 | –
[11], 37 nM | 1.07 | –
[11], 111.1 nM | 0.701 | –
[11], 333.3 nM | 0.894 | –
[11], 1000 nM | 0.819 | –
[11], 3000 nM | 1.06 | –
[12], 4.1 nM | 0.426 | –
[12], 12.3 nM | 0.665 | –
[12], 37 nM | 2.8 | –
[12], 111.1 nM | 0.663 | –
[12], 333.3 nM | 0.594 | –
[12], 1000 nM | 0.586 | –
[12], 3000 nM | 0.934 | –
[13], 4.1 nM | 1.2 | –
[13], 12.3 nM | 0.513 | –
[13], 37 nM | 1.59 | –
[13], 111.1 nM | 0.677 | –
[13], 333.3 nM | 0.562 | –
[13], 1000 nM | 0.954 | –
[13], 3000 nM | 0.563 | –
[14], 4.1 nM | 1.02 | –
[14], 12.3 nM | 0.39 | –
[14], 37 nM | 0.547 | –
[14], 111.1 nM | 0.548 | –
[14], 333.3 nM | 0.562 | –
[14], 1000 nM | 1.03 | –
[14], 3000 nM | 0.857 | –
